Test results from patent publication US12559489B2, “Antagonistic small molecule compound having toll-like receptor 7/9 inhibitory function” (AJOU UNIVERSITY INDUSTRY-ACADEMIC COOPERATION FOUNDATION, priority 2020, dated 2026).
Read-outs that look alike come from different tables or passages of the source.

Key:
[1] = system: RAW264.7 cells; assay: MTT cytotoxicity assay in RAW264.7 cells; format: cell-based, murine; settings: RAW264.7 cells, 1, 10 and 50 μM, 24 hours (FIG. 7A)
Procedure: (§1) RAW264.7 cells, which are murine macrophages (ATCC, Manassas, VA, USA), were incubated in low-glucose DMEM (Thermo Fisher Scientific Inc.) supplemented with 10% FBS, 100 IU/ml of penicillin and 100 μg/ml of streptomycin in an incubator. Imiquimod (IMQ; TLR7 agonist) and CpG-ODN (ODN 2395; TLR9 agonist) were obtained from InvivoGen (San Diego, CA, USA), and hydroxychloroquine (HCQ; endosomal TLRs inhibitor) was obtained from Sigma Aldrich Co. (St. Louis, MO, USA).
(§2) RAW264.7 cells were incubated along with 1, 10 or 50 μM of a compound. After 24 hours, MTT (3-(4,5-dimethylthiazol-2-yl)-2,5-diphenyltetrazolium bromide) assay and enzyme-linked immunosorbent assay (ELISA) were sequentially performed.

[2] = target: T1, TLR7 (Mus musculus, UniProt P58681); assay: Inhibition of IMQ (TLR7 agonist)-induced TNF-α secretion in RAW264.7 cells, ELISA; format: cell-based, murine; settings: for inhibition of secretion of TLR7-induced TNF-α: in the presence of IMQ, 1, 10 or 50 μM, ELISA (FIG. 7B and 7C)
T1 construct: host or cells: RAW264.7 murine macrophages
T1 sequence (P58681 27-1050): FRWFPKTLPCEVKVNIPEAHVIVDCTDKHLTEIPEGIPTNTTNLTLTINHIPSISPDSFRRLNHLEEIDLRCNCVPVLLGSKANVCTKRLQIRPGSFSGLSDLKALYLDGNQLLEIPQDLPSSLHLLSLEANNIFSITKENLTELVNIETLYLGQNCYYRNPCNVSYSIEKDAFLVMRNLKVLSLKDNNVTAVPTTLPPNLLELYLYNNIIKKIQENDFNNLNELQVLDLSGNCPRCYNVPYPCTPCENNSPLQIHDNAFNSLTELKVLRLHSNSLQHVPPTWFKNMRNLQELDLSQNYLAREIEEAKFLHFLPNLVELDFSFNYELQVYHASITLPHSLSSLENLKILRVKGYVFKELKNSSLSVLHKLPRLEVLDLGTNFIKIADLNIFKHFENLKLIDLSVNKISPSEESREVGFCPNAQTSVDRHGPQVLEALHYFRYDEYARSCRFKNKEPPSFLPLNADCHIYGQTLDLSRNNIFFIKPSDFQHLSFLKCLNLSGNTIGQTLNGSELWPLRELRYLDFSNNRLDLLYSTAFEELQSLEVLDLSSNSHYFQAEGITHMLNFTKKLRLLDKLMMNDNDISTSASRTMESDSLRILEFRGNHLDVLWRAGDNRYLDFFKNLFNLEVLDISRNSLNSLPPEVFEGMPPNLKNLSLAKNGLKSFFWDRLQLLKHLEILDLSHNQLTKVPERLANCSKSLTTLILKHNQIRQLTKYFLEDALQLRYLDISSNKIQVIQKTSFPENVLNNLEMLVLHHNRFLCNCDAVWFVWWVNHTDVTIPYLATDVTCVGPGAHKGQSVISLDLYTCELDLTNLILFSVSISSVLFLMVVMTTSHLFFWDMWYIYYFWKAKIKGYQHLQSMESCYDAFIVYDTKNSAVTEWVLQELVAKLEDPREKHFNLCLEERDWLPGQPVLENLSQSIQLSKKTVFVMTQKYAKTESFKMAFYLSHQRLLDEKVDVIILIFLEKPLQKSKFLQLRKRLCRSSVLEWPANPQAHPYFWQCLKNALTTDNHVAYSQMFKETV
Procedure: as §1, §2
(§3) ODN 2395 was used as a ligand to activate TLR9 and IMQ was used to induce TLR7 activity. The inhibitory effects of TAC5-050 and TAC5-051 against TLR9 or TLR7 were determined. HCQ, which is known to inhibit endosomal TLRs, was used as a control group. Since the median inhibitory concentration was expected to range from 50 and 20 μM, the concentration range was set to decrease by half from the high concentration (50 μM) to the low concentration ([…]).
(§4) RAW264.7 cells (2×10^4 cells/well) were treated with small molecule compounds and HCQ for 1 hour (0.25% DMSO), incubated and then treated with ODN 2395 (0.5 μM) or IMQ (1 μg/ml) for 4 hours. Then, the ELISA for detecting mTNF-α was performed in accordance with the following protocol: • 1. Transfer samples from 96 well cell culture plate to elisa coated plate) and incubate for 2 h • 2. Treat detection antibody and incubate for 1 h • 3. Treat HRP and incubate for 30 min • 4. Treat TMB and read the samples by using micro-plate reader machine

[3] = target: T2, TLR9 (Mus musculus, UniProt Q9EQU3); assay: Inhibition of ODN 2395 (TLR9 agonist)-induced TNF-α secretion in RAW264.7 cells, ELISA; format: cell-based, murine; settings: for inhibition of secretion of TLR9-induced TNF-α: in the presence of ODN 2395, 1, 10 or 50 μM, ELISA (FIG. 7B and 7C)
T2 construct: host or cells: RAW264.7 murine macrophages
T2 sequence (Q9EQU3 26-1032): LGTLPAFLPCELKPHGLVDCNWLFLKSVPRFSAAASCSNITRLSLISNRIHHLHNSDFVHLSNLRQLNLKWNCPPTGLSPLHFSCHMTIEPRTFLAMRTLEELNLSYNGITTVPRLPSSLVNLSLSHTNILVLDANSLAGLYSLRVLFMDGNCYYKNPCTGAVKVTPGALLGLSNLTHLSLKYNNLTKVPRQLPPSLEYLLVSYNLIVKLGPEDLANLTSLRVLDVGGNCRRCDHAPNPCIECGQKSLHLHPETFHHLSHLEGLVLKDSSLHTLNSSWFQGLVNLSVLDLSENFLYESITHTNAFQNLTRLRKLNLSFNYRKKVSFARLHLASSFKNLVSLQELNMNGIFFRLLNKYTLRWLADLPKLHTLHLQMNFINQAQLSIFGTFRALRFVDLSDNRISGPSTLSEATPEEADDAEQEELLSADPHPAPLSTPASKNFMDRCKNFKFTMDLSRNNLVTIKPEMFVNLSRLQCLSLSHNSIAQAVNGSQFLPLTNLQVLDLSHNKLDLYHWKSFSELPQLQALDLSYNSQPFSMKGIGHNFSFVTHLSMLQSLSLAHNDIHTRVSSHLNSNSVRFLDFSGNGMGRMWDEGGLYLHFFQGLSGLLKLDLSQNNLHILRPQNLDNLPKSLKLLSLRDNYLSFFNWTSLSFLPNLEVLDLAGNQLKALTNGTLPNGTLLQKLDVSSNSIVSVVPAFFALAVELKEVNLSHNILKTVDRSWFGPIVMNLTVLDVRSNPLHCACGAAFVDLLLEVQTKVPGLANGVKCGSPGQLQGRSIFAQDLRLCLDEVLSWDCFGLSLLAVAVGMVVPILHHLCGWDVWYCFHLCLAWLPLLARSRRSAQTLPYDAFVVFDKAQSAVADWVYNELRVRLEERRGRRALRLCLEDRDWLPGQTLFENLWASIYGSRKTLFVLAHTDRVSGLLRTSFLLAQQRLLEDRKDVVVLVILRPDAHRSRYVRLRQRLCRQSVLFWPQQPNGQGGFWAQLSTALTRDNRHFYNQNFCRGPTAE
Procedure: as §1, §2, §3, §4

[4] = Solubility noted during preparation; format: physicochemical; settings: remark in the preparation example, no medium stated
Procedure: 0.5 g (4.2 mmol) of […] was dissolved in 50 ml of MC, and 2.8 g (21 mmol, 5 eq) of AlCl3 was added thereto, followed by stirring at room temperature for 1 hour. A solution of 2.28 g (12.3 mmol) of p-nitrobenzoyl chloride in 10 ml of MC was added dropwise to the reaction solution at room temperature. The mixture was stirred overnight. When the reaction was completed, the reactor containing the concentrated residue was placed in an ice bath, 30 g of ice water was added thereto, and then stirred for 1 hour. Then, the result was filtered and washed with water. The solid was dissolved in 30 mL of MC and 10 mL of MeOH, and washed with 30 mL of Sat'd NaHCO3, and the layers were separated. The MC layer was washed with water, and the organic layer was dried over MgSO4, filtered, and concentrated under reduced pressure. After refluxing in 20 ml of IPA, the result was stirred at room temperature for 1 hour and then filtered. The solid was refluxed in 20 ml of MC, stirred at room temperature for 1 hour, and filtered to prepare 85 mg of (3-nitro-phenyl)-(1H-pyrrolo[2,3-b]pyridin-3-yl)-methanone (yield: 7.5%). However, it was not easy to remove impurities, so the yield was low and solubility was also low.

Row | Compound | cytotoxicity (MTT assay) [1] | inhibition of secretion of TLR7-induced TNF-α ([2]; RAW264.7 cells) | inhibition of secretion of TLR9-induced TNF-α ([3]; RAW264.7 cells) | further results
1 | CC(C)n1cc(C(=O)c2ccccc2)c2cccnc21 [TAC5-050, (1-Isopropyl-1H-pyrrolo[2,3-b]pyridin-3-yl)-phenyl-methanone] | non-cytotoxic | inhibited the secretion of TLR7- or TLR9-induced TNF-α in a dose-dependent manner | inhibited the secretion of TLR7- or TLR9-induced TNF-α in a dose-dependent manner | IC50 [2]: 24 µM; IC50 [3]: 53.1 µM
2 | O=C(c1ccccc1)c1cn(S(=O)(=O)c2ccccc2)c2ncccc12 [TAC5-051, (1-Benzenesulfonyl-1H-pyrrolo[2,3-b]pyridin-3-yl)-phenyl-methanone] | non-cytotoxic | inhibited the secretion of TLR7- or TLR9-induced TNF-α in a dose-dependent manner | inhibited the secretion of TLR7- or TLR9-induced TNF-α in a dose-dependent manner | IC50 ([2]; RAW264.7 cells, compound 1 hour, then IMQ (1 μg/ml) 4 hours, mTNF-α ELISA (FIG. 9), read-out: IC50 for TLR7): 10.8 µM; IC50 ([3]; RAW264.7 cells, compound 1 hour, then ODN 2395 (0.5 μM) 4 hours, mTNF-α ELISA (FIG. 8), read-out: IC50 for TLR9): 13.8 µM
3 | O=C(c1cccc([N+](=O)[O-])c1)c1c[nH]c2ncccc12 [TAC5-052, (3-Nitro-phenyl)-(1H-pyrrolo[2,3-b]pyridin-3-yl)-methanone] | cytotoxic | – | – | solubility [4]: low
4 | O=C(c1ccc(Cl)c(Cl)c1)c1c[nH]c2ncccc12 [TAC5-053, (3,4-Dichloro-phenyl)-(1H-pyrrolo[2,3-b]pyridin-3-yl)-methanone] | cytotoxic | – | – | –
5 | O=C(c1ccc(Cl)c(F)c1)c1c[nH]c2ncccc12 [TAC5-054, (4-Chloro-3-fluoro-phenyl)-(1H-pyrrolo[2,3-b]pyridin-3-yl)-methanone] | cytotoxic | – | – | –
6 | O=C(c1ccccc1)c1c[nH]c2ncc(Cl)cc12 [TAC5-055, (5-Chloro-1H-pyrrolo[2,3-b]pyridin-3-yl)-phenyl-methanone] | cytotoxic | – | – | –
